Consider 1 molecule from patent publication US20240118287A1, “ANALYSIS PLATE FOR A MASS SPECTROMETRY ANALYSIS AND ASSOCIATED METHOD FOR CHARACTERIZING MICROORGANISMS BY MASS SPECTROMETRY” (priority 2021, published 2024).

Converted amounts (≈) assume the structure as drawn.

Common to all, as to type: cell-based
Test [1] relates to Ref 6 S. aureus. The test is described as follows: MIC by microdilution in broth, reference strain Ref 6. Details: key to Phenotype (R = resistant, S = sensitive): RA signifies resistance to amoxicillin; RC signifies resistance to ceftriaxone; RM signifies resistance to meropenem; RO resistance to oxacillin; SA signifies sensitive to amoxicillin; SC signifies sensitive to ceftriaxone; SM signifies sensitive to meropenem; SO sensitive to oxacillin. On the procedure: (§1) The minimum inhibitory concentration (MIC in μg/ml) was determined by microdilution in broth, a technique very widely used by a person skilled in the art.
For orientation: Dilution methods test growth across graded concentrations, often in twofold steps.

Test [2] has as its system Isolate 10 (Staphylococcus aureus). The test can be described thus: MIC determination on analysis plate with oxacillin concentration range, MALDI-TOF (Example 5). The settings on record: read-out: MIC by the method of the invention. On the procedure:
(§2) The analysis cassettes thus prepared were incubated in the stove at 37° C. for 2, 3, 4 or 5 hours.
(§3) At the end of the incubation step, the analysis plates are placed on very absorbent, dry blotting paper, with an absorption capacity of 25 μL·cm^−2, so that the drops present on the analysis plate are aspirated by capillarity through the analysis zones made of porous material.
(§4) 1 μl of HCCA matrix, alpha-cyano 4-hydroxycinnamic acid (VITEK®MS-CHCA, bioMérieux reference 411071) was deposited on the analysis zones, comprising the microorganisms and the antimicrobial agent, and on the calibration zones comprising the calibrant.
(§5) The analysis plate is then dried and analyzed by VITEK®MS as described in example 1.
(§6) The dilutions of Staphylococci of the reference strains and of the isolates were analyzed on the analysis plates according to the invention with 4 deposits of oxacillin at 0.125 μg/ml, 4 deposits of oxacillin at 0.25 μg/ml, 4 deposits of oxacillin at 0.5 μg/ml, 4 deposits of oxacillin at 1 μg/ml, 4 deposits of oxacillin at 2 μg/ml, 4 deposits of oxacillin at 4 μg/ml, 4 deposits of oxacillin at 8 μg/ml, 4 deposits of oxacillin at 16 μg/ml, 4 deposits of oxacillin at 32 μg/ml, 4 deposits of oxacillin at 64 μg/ml, 4 deposits of oxacillin at 128 μg/ml, 4 deposits of oxacillin at 256 μg/ml.

Test [3] deals with Isolate 12 (Staphylococcus epidermidis). The description is as above. Conditions: read-out: MIC by the method of the invention. The protocol:
as §2, §3, §4, §5, §6

Test [4] has as its system Isolate 11 (Staphylococcus aureus). The test is described as above. Conditions: read-out: MIC by the method of the invention. On the procedure: as §2, §3, §4, §5, §6
Test [5] concerns Isolate 9 (Staphylococcus aureus). Described as above. Conditions: read-out: MIC by the method of the invention. On the procedure: as §2, §3, §4, §5, §6
The test system of test [6] is reference strain No. 7 (S. aureus). The description is as above. On the procedure: as §2, §3, §4, §5, §6
For test [7], the system named is Reference strain No. 6 (S. aureus). Described as above. The protocol:
as §2, §3, §4, §5, §6

The subject of test [8] is Isolate 10 (Staphylococcus aureus). The test is described as follows: Resistance characterization on functionalized analysis plate, MALDI-TOF (Example 4). Conditions: isolate 10 (S. aureus); oxacillin 2 μg/ml; threshold identification probability ≥90% for at least 3 deposits out of 4. The protocol:
(§7) This cassette comprises a gasket so as to be able to dispose the analysis plate on a sponge impregnated to saturation with Muller-Hinton culture medium. The sponge impregnated with a culture medium serves as a support, and it is made of porous material as described in the description.
(§8) A cover was placed on the cassette containing the analysis plate so as to be clipped on the cassette and close the device without touching the top of the drops.
as §2, §3, §4, §5
(§9) The isolates identified in example 1 were diluted to 0.5 McFarland (McF) in Muller-Hinton medium (bioMérieux reference AEB 110699), then diluted again to 1/100° for the Gram-negative bacteria and to 1/10° for the Gram-positive bacteria, always in Muller-Hinton medium.
(§10) Drops of 2 μl of the final dilutions were deposited on the analysis zones of the analysis plates according to the invention as described in example 2. As before, the dilutions of E. coli and of K. pneumoniae were analyzed on the targets with 16 deposits of amoxicillin, 16 deposits of ceftriaxone and 16 deposits of meropenem. The dilutions of Staphylococci were analyzed on the targets with 2 μg/ml of oxacillin.
(§11) When no sample deposit was provided on an analysis zone, this zone is covered with a Parafilm M plastic film (Bemis North America) before putting the analysis plate in the cassette. In this way, the analysis zone was not brought into contact with the culture medium contained in the sponge impregnated to saturation. The positions unused in the first analysis thus remained usable for a subsequent analysis.
(§12) The analysis was carried out according to the same procedure as in example 3 with an incubation of 4 h for all the microorganisms. Moreover, the results were interpreted as in example 3, i.e. with a threshold of identification probability greater than or equal to 90% for at least 3 deposits out of 4.

Test [9] concerns Isolate 12 (Staphylococcus epidermidis). The description is as above. The settings on record: isolate 12 (S. epidermidis); oxacillin 2 μg/ml; threshold identification probability ≥90% for at least 3 deposits out of 4. The protocol:
as §7, §8, §2, §3, §4, §5, §9, §10, §11, §12

Test [10] relates to Isolate 11 (Staphylococcus aureus). Described as above. The settings on record: isolate 11 (S. aureus); oxacillin 2 μg/ml; threshold identification probability ≥90% for at least 3 deposits out of 4. The protocol: as §7, §8, §2, §3, §4, §5, §9, §10, §11, §12
Test [11] concerns Isolate 9 (Staphylococcus aureus). The test is described as above. The settings on record: isolate 9 (S. aureus); oxacillin 2 μg/ml; threshold identification probability ≥90% for at least 3 deposits out of 4. On the procedure:
as §7, §8, §2, §3, §4, §5, §9, §10, §11, §12

Test [12] deals with Ref 7 S. aureus. The test is described as follows: MIC by microdilution in broth, reference strain Ref 7. Also noted: key to Phenotype (R = resistant, S = sensitive): RA signifies resistance to amoxicillin; RC signifies resistance to ceftriaxone; RM signifies resistance to meropenem; RO resistance to oxacillin; SA signifies sensitive to amoxicillin; SC signifies sensitive to ceftriaxone; SM signifies sensitive to meropenem; SO sensitive to oxacillin. The settings on record: mecA. The protocol: as §1

The mark [13] stands for this setting: Staphylococcus aureus, microdilution in broth, read-out: Minimum inhibitory concentration (MIC in μg/ml).

Take `Cc1onc(-c2ccccc2)c1C(=O)N[C@@H]1C(=O)N2[C@@H]1SC(C)(C)[C@@H]2C(=O)O` [Oxacillin, oxacillin]: the “Phenotype (R = resistant, S = sensitive)” value in test [1] is reported as “SO”; in [12], “RO”. Moreover, the MIC came to 0.25 µg/mL (≈ 0.623 µM) in [1] (setting [13]); 0.25 µg/mL (≈ 0.623 µM) in test [2]; 0.125 µg/mL (≈ 0.311 µM) in test [3]; 0.5 µg/mL (≈ 1.25 µM) in test [4]; 16 µg/mL (≈ 39.9 µM) in [5]; 128 µg/mL (≈ 319 µM) in [6] (Staphylococcus aureus, compliant with Table 2, read-out: MIC by the method of the invention). Besides, the MIC in test [7] (Staphylococcus aureus, equals Table 2 MIC, read-out: MIC, lowest growth inhibiting concentration observed by the method of the invention) was 0.25 µg/mL (≈ 0.623 µM); in test [12] (setting [13]), 128 µg/mL (≈ 319 µM). Further, the “Identification probability as S. aureus” value is 99.9% in test [6] (oxacillin 0.125 at 64 μg/ml); “greater than 99.9%” in test [7] (oxacillin 0.125 μg/ml, in 3 deposits out of 4); “greater than 99.9%” in test [7] (oxacillin 0.25 μg/ml, for 1 deposit out of 4). For the same molecule, the “Identification as S. aureus” value in test [6] (oxacillin 128 and 256 μg/ml) was “not identified”; in test [7] (higher concentrations of oxacillin (above 0.25 μg/ml)), “not identified”. Also, the “Isolate characterized as resistant or sensitive to the antibiotic” value is listed as “sensitive” in [8], “sensitive” in test [9], “sensitive” in test [10] and “resistant” in test [11].
